This note sets out measurements from patent US20250326757A1, “SOLID FORMS OF HETEROCYCLYLAMIDES AS IRAK4 INHIBITORS” (AstraZeneca AB, priority 2022, published 2025).

Data set [1] is classed as physicochemical. The protocol:
Amorphous Compound (I) (20 mg) was suspended in 2-propanol (800 μL) and stirred at room temperature for 2 weeks. The resultant solid was collected by filtration.

Data set [2] is classed as physicochemical. Conditions: 70° C., low (11%) and high (75%) relative humidity, 21 days. The protocol:
The physical and chemical stability of N-(Imidazo[1,2-b]pyridazin-3-yl)-6-methoxy-2-((1r,4r)-4-(N-methylacetamido)cyclohexyl)-2H-indazole-5-carboxamide Form A was further assessed under stressed conditions (elevated temperature (70° C.) at low (11%) and high (75%) relative humidity) over a period of 21 days according to standard protocols. Briefly, samples of Form A material were weighed into sample vials, the sample vials were placed in separate jars each containing a MadgeTech temperature and humidity logger and, in a separate vial, a saturated solution of either lithium chloride (to give 11% relative humidity) or sodium chloride (to give 75% relative humidity). The two jars (low/high humidity) were then sealed and placed in a calibrated oven at a temperature of 70° C. for a period of 21 days. Control samples were maintained in sealed vials in a refrigerator for the duration of the study.
Furthermore, XRPD confirmed that the physical form of the material over the course of the study was unchanged. It could thus be concluded that no chemical degradation of the samples or change in their physical form occurred on storage under stressed conditions. Accordingly, the suitability of N-(Imidazo[1,2-b]pyridazin-3-yl)-6-methoxy-2-((1r,4r)-4-(N-methylacetamido)cyclohexyl)-2H-indazole-5-carboxamide Form A for further development in pharmaceutical formulations was established.

Structures are written as SMILES.

As for `COc1cc2nn([C@H]3CC[C@H](N(C)C(C)=O)CC3)cc2cc1C(=O)Nc1cnc2cccnn12` [Form A, N-(Imidazo[1,2-b]pyridazin-3-yl)-6-methoxy-2-((1r,4r)-4-(N-methylacetamido)cyclohexyl)-2H-indazole-5-carboxamide Form A], in data set [1], the “Stability to prolonged storage under accelerated ageing conditions” value is recorded as “stable”. The “Physical form by XRPD over the course of the study” value in data set [2] was “unchanged”.
